We go through 20 molecules from patent US8722670B2, “Selective NR2B antagonists” (Bristol-Myers Squibb Company, priority 2011, dated 2014).

For test [1], the target named is T1, hNR2B (Homo sapiens, UniProt Q13224).
T1 construct: expressed in transfected cells; host or cells: Xenopus laevis oocytes, cRNA-injected
In words: Electrophysiology NMDA receptor experiments: two electrode voltage-clamp in Xenopus laevis oocytes, hNR2B IC50. The class given is cell-based. The settings on record: hNR2B activity class, 50 μM glutamate, 30 μM glycine. (In general: In two-electrode clamp one electrode senses voltage and the other passes current.)

For test [2], the target named is T2, hNR2B (Homo sapiens, UniProt Q05586+Q13224).
T2 construct: expressed in transfected cells; host or cells: Xenopus laevis oocytes, cRNA-injected
The description is as above. It is filed as cell-based. As to conditions: 50 μM glutamate, 30 μM glycine.

Setting [3] is: hNR2B activity class, read-out: Activity.
The mark [4] stands for this setting: voltage clamp -40 mV, read-out: hNR2B IC50.

Read-outs that look alike come from different tables or passages of the source.

T2 sequence (Q13224 27-1484, other chains not shown): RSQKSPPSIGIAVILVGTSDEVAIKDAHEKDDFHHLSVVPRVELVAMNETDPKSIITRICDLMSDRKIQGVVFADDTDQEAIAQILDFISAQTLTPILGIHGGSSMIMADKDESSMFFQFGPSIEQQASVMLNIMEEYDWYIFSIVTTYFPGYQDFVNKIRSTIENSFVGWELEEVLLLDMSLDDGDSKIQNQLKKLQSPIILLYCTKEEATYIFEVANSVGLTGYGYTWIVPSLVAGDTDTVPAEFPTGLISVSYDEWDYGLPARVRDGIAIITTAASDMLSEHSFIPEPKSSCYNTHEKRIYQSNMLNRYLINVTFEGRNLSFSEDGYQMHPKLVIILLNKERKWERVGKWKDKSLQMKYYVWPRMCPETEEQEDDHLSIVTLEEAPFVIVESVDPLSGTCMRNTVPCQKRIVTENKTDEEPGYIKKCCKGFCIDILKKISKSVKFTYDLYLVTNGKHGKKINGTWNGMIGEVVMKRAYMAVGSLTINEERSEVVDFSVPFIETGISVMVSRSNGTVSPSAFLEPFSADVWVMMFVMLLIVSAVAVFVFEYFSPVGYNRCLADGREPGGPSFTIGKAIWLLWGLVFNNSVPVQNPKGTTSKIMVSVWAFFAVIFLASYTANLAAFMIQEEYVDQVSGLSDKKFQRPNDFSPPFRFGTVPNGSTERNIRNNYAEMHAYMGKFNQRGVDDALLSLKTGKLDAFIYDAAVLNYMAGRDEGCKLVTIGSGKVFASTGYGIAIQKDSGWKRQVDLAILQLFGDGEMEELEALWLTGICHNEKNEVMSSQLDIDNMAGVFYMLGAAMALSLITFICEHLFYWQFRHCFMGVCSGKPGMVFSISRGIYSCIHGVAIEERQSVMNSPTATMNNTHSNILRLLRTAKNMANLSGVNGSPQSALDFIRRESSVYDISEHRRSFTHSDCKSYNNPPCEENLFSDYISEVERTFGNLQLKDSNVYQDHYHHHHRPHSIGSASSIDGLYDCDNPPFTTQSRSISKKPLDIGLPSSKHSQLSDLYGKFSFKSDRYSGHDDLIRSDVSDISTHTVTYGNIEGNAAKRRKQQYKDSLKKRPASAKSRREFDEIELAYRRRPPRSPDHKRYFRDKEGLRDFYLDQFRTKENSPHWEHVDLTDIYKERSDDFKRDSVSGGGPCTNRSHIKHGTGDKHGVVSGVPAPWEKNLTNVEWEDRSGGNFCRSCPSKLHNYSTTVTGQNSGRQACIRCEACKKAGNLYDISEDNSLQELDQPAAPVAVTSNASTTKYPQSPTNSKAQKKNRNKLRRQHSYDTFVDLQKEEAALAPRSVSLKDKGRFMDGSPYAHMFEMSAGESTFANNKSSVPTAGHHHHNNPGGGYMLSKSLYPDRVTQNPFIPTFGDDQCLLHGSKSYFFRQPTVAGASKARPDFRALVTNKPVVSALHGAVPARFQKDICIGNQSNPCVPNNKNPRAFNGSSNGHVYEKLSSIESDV
T1 sequence (Q13224 27-1484, other chains not shown): as above

For the molecule `CC(Oc1ccc2[nH]c(=O)ccc2c1)c1nnc(Nc2ccc(Cl)c(Cl)c2)o1` (single isomer, unassigned) [Example 110], at hNR2B [1], the IC50 was less than 200 nM.
Consider `CCc1ccc(Nc2cc(COc3ccc4[nH]ncc4c3)on2)cc1` [Example 273], for which, on hNR2B [2] (setting [3]), the IC50 was 1000 to 10000 nM.
On to `Fc1cc(Nc2cc(COc3ccc4[nH]ncc4c3)on2)ccc1OC(F)F` [Example 274], for which the IC50 on hNR2B [2] (setting [3]) was less than 200 nM.
Still for that read-out and setting: with `FC(F)Oc1ccc(Nc2cc(COc3ccc4[nH]ncc4c3)on2)cc1` [Example 275] the figure was less than 200 nM.
`Cn1c(COc2ccc3[nH]c(=O)ccc3c2)nnc1Nc1ccc(Cl)c(Cl)c1` [Example 276, 6-((5-(3,4-dichlorophenylamino)-4-methyl-4H-1,2,4-triazol-3-yl)methoxy)quinolin-2(1H)-one]: at hNR2B [2] (setting [4]), the IC50 stood at 24 nM.
Take `Cn1c(CCc2ccc3[nH]ncc3c2)nnc1Nc1ccc(OC(F)F)cc1` [Example 277, 5-(2-(1H-indazol-5-yl)ethyl)-N-(4-(difluoromethoxy)phenyl)-4-methyl-4H-1,2,4-triazol-3-amine]: the IC50 at hNR2B [2] (setting [4]) amounted to 104 nM.
For `Cn1c(COc2ccc3[nH]c(=O)ccc3c2)nnc1Nc1ccc(OC(F)F)cc1` [Example 278], the IC50 at hNR2B [2] (setting [4]) was determined as 90 nM.
`Cn1c(COc2ccc3[nH]c(=O)ccc3c2)nnc1Nc1ccc(OC(F)(F)F)cc1` [Example 279]: the IC50 at hNR2B [2] (setting [3]) is less than 200 nM.
As for `Cn1c(CCNc2ncnc3[nH]ncc23)nnc1Nc1ccc(OC(F)F)cc1` [Example 280], the IC50 at hNR2B [2] (setting [3]) was less than 200 nM.
For `CCn1c(COc2ccc3[nH]c(=O)ccc3c2)nnc1Nc1ccc(OC(F)F)cc1` [Example 281], at hNR2B [2] (setting [3]), the IC50 was less than 200 nM.
On to `O=c1ccc2cc(OCc3nnc(Nc4ccc(Cl)cc4)[nH]3)ccc2[nH]1` [Example 282], for which the IC50 on hNR2B [2] (setting [4]) worked out at 290 nM.
With `O=C1CCc2cc(OCc3nnc(Nc4ccc(Cl)cc4)[nH]3)ccc2N1` [Example 283], the IC50 at hNR2B [2] (setting [3]) is 201 to 1000 nM.
As to `O=C1CCc2cc(OCc3nnc(Cc4ccc(Cl)c(Cl)c4)[nH]3)ccc2N1` [Example 284, 6-((5-(3,4-dichlorobenzyl)-4H-1,2,4-triazol-3-yl)methoxy)-3,4-dihydroquinolin-2(1H)-one], the IC50 on hNR2B [2] (setting [4]) is 20000 nM.
On the same count and under the same terms, in the case of `O=c1ccc2cc(OCc3nnc(Cc4ccc(Cl)c(Cl)c4)[nH]3)ccc2[nH]1` [Example 285, 6-((5-(3,4-dichlorobenzyl)-4H-1,2,4-triazol-3-yl)methoxy)quinolin-2(1H)-one] it was 5000 nM; in that of `O=C1CCc2cc(OCc3nnc(-c4ccc(Cl)cc4)[nH]3)ccc2N1` [Example 286, 6-((5-(4-chlorophenyl)-4H-1,2,4-triazol-3-yl)methoxy)-3,4-dihydroquinolin-2(1H)-one], 3000 nM; in that of `O=C1CCc2cc(OCc3nc(Cc4ccc(Cl)cc4)no3)ccc2N1` [Example 287, 6-((3-(4-chlorobenzyl)-1,2,4-oxadiazol-5-yl)methoxy)-3,4-dihydroquinolin-2(1H)-one], 3800 nM.
On to `O=C1CCc2cc(OCCCc3noc(-c4ccc(Cl)cc4)n3)ccc2N1` [Example 288, 6-(3-(5-(4-chlorophenyl)-1,2,4-oxadiazol-3-yl)propoxy)-3,4-dihydroquinolin-2(1H)-one], for which the IC50 on hNR2B [2] (setting [4]) was more than 10000 nM.
With `O=c1ccc2cc(OCc3nnc(Cc4ccc(Cl)c(Cl)c4)o3)ccc2[nH]1` [Example 289, 6-((5-(3,4-dichlorobenzyl)-1,3,4-oxadiazol-2-yl)methoxy)quinolin-2(1H)-one], on hNR2B [2] (setting [4]), the IC50 came out at 2400 nM.
Take `O=C1CCc2cc(OCc3nnc(C(O)c4ccc(Cl)c(Cl)c4)o3)ccc2N1` (centres unmarked) [Example 290, 6-((5-((3,4-dichlorophenyl)(hydroxy)methyl)-1,3,4-oxadiazol-2-yl)methoxy)-3,4-dihydroquinolin-2(1H)-one]: the IC50 on hNR2B [2] (setting [4]) was 4800 nM.
The same measure, in the same setting: with `O=C1CCc2cc(OCCNc3nnc(-c4ccc(C(F)(F)F)cc4)o3)ccc2N1` [Example 291, 6-(2-(5-(4-(trifluoromethyl)phenyl)-1,3,4-oxadiazol-2-ylamino)ethoxy)-3,4-dihydroquinolin-2(1H)-one] the figure was 1200 nM.
